Data: the supplement of paper PMC11451515

Tested on: NOMO1
Experiment: cell viability relative to DMSO control; higher = less cytotoxic
Conditions: 48 h
In short: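 Viability is expressed as a percentage of DMSO wells within each plate, and cell-free wells serve as background. Seeding densities in the 1536-well plates (5 μl) were 500 cells/well for NOMO1 or SEM leukemia cells and 1000 cells/well for P12-Ichikawa. Each line was adapted for at least four passages in each medium. Library compounds in DMSO were pin-dosed at 47 μM to 0.79 nM (11 points, threefold), and CellTiter-Glo One luminescence was read after 48 h at 37°C.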

[1] = HPLM + 10% dialyzed FBS, 0.000781 µM
[2] = HPLM + 10% dialyzed FBS, 0.00234 µM
[3] = HPLM + 10% dialyzed FBS, 0.00702 µM
[4] = HPLM + 10% dialyzed FBS, 0.0211 µM
[5] = HPLM + 10% dialyzed FBS, 0.0632 µM
[6] = HPLM + 10% dialyzed FBS, 0.19 µM
[7] = HPLM + 10% dialyzed FBS, 0.569 µM
[8] = HPLM + 10% dialyzed FBS, 1.71 µM
[9] = HPLM + 10% dialyzed FBS, 5.12 µM
[10] = HPLM + 10% dialyzed FBS, 15.4 µM
[11] = HPLM + 10% dialyzed FBS, 46.1 µM
[12] = RPMI 5 mM glucose + 10% FBS, 0.000781 µM
[13] = RPMI 5 mM glucose + 10% FBS, 0.00234 µM
[14] = RPMI 5 mM glucose + 10% FBS, 0.00702 µM
[15] = RPMI 5 mM glucose + 10% FBS, 0.0211 µM
[16] = RPMI 5 mM glucose + 10% FBS, 0.0632 µM
[17] = RPMI 5 mM glucose + 10% FBS, 0.19 µM
[18] = RPMI 5 mM glucose + 10% FBS, 0.569 µM
[19] = RPMI 5 mM glucose + 10% FBS, 1.71 µM
[20] = RPMI 5 mM glucose + 10% FBS, 5.12 µM
[21] = RPMI 5 mM glucose + 10% FBS, 15.4 µM
[22] = RPMI 5 mM glucose + 10% FBS, 46.1 µM
[23] = RPMI 5 mM glucose + 10% dialyzed FBS, 0.000781 µM
[24] = RPMI 5 mM glucose + 10% dialyzed FBS, 0.00234 µM
[25] = RPMI 5 mM glucose + 10% dialyzed FBS, 0.00702 µM
[26] = RPMI 5 mM glucose + 10% dialyzed FBS, 0.0211 µM
[27] = RPMI 5 mM glucose + 10% dialyzed FBS, 0.0632 µM
[28] = RPMI 5 mM glucose + 10% dialyzed FBS, 0.19 µM
[29] = RPMI 5 mM glucose + 10% dialyzed FBS, 0.569 µM
[30] = RPMI 5 mM glucose + 10% dialyzed FBS, 1.71 µM
[31] = RPMI 5 mM glucose + 10% dialyzed FBS, 5.12 µM
[32] = RPMI 5 mM glucose + 10% dialyzed FBS, 15.4 µM
[33] = RPMI 5 mM glucose + 10% dialyzed FBS, 46.1 µM

Structure (SMILES) | cell viability [1] [%] | cell viability [2] [%] | cell viability [3] [%] | cell viability [4] [%] | cell viability [5] [%] | cell viability [6] [%] | cell viability [7] [%] | cell viability [8] [%] | cell viability [9] [%] | cell viability [10] [%] | cell viability [11] [%] | cell viability [12] [%] | cell viability [13] [%] | cell viability [14] [%] | cell viability [15] [%] | cell viability [16] [%] | cell viability [17] [%] | cell viability [18] [%] | cell viability [19] [%] | cell viability [20] [%] | cell viability [21] [%] | cell viability [22] [%] | cell viability [23] [%] | cell viability [24] [%] | cell viability [25] [%] | cell viability [26] [%] | cell viability [27] [%] | cell viability [28] [%] | cell viability [29] [%] | cell viability [30] [%] | cell viability [31] [%] | cell viability [32] [%] | cell viability [33] [%]
CN(C)c1nc(Cc2ccc(NC(=O)c3ccc4ccccc4c3)cc2)nc(Cl)c1CC(=O)O | 113 | 116 | 112 | 126 | 114 | 90.9 | 106 | 65.2 | 57.6 | 47.2 | 48.1 | 115 | 98.2 | 100 | 98.3 | 100 | 97 | 97.1 | 74.3 | 73 | 61.8 | 44.4 | 108 | 110 | 98.6 | 106 | 111 | 99.4 | 92.9 | 62.1 | 63.1 | 60.7 | 43.6
CN1C(=O)C[C@H](C(=O)N[C@@H](Cc2cnc[nH]2)C(=O)N2CCC[C@H]2C(N)=O)NC1=O | 119 | 122 | 109 | 113 | 116 | 125 | 126 | 130 | 104 | 108 | 107 | 126 | 115 | 121 | 119 | 126 | 132 | 114 | 124 | 116 | 115 | 114 |  |  |  |  |  |  |  |  |  |  | 
O=C(Oc1ccc([N+](=O)[O-])cc1)N1CCC(C(O)(c2ccc3c(c2)OCO3)c2ccc3c(c2)OCO3)CC1 | 102 | 95.5 | 93 | 119 | 107 | 92.3 | 107 | 88.5 | 85.3 | 89.8 | 58.4 | 87.7 | 87.7 | 83 | 91.8 | 96.6 | 90.1 | 86.2 | 86.3 | 88.3 | 88.4 | 89.2 | 73.1 | 73.3 | 86 | 80.4 | 90.3 | 77.9 | 84.2 | 71 | 65.6 | 74.6 | 74.5
Nc1cccc2c1CN([C@H]1CCC(=O)NC1=O)C2=O |  |  |  |  |  |  |  |  |  |  |  | 125 | 118 | 124 | 123 | 112 | 114 | 98.3 | 105 | 99.7 | 82.1 | 112 | 101 | 111 | 120 | 104 | 114 | 108 | 107 | 109 | 103 | 88.4 | 107
CC1(N2CCC(n3c([C@@H]4CCCNC4)nc4ccccc43)CC2)CCCCCCC1 | 77.1 | 100 | 112 | 111 | 127 | 116 | 116 | 101 | 94 | 45.4 | 7.21 | 93.6 | 103 | 102 | 112 | 108 | 124 | 112 | 120 | 109 | 97.7 | 53.5 | 91 | 108 | 122 | 115 | 121 | 104 | 130 | 134 | 98.4 | 69.4 | 17.8
COc1cc2c(Nc3ccc(Br)cc3F)ncnc2cc1OCC1CCN(C)CC1 | 93.2 | 93.5 | 88.9 | 90.1 | 75 | 85.5 | 81 | 71 | 74.8 | 31.5 | 69.8 | 79 | 81.7 | 76.5 | 75.5 | 75.4 | 78.1 | 77 | 79.7 | 90.3 | 72.6 | 73 | 82.4 | 79.1 | 82.2 | 88.4 | 88.2 | 85.2 | 86.8 | 70.7 | 88.6 | 41.1 | 84.4
CC[C@@]1(O)C(=O)OC\C2=C1\C=C\3N(CC4=C3N=C5C=CC=CC5=C4)C2=O | 122 | 115 | 145 | 120 | 80.4 | 30.3 | 30.7 | 28.6 | 21.1 | 14.9 | 25.7 | 117 | 106 | 120 | 106 | 77.5 | 22.3 | 20.8 | 20.4 | 11.9 | 16.7 | 17.9 | 126 | 110 | 121 | 103 | 76.5 | 28.9 | 28.6 | 27.5 | 21.9 | 22.4 | 14
Oc1cccc(-c2nc(N3CCOCC3)c3oc4ncccc4c3n2)c1 | 121 | 92.1 | 117 | 91.8 | 92.3 | 107 | 115 | 102 | 129 | 96.4 | 103 | 109 | 113 | 116 | 123 | 112 | 108 | 104 | 87.4 | 128 | 124 | 122 | 120 | 106 | 125 | 98.9 | 110 | 102 | 80.4 | 77.7 | 109 | 106 | 126
CN(C)CCN(C)C(=O)c1ccc(NC(=O)Nc2ccc(-c3nc(N4CCOCC4)c4ccn(CC(F)(F)F)c4n3)cc2)cc1 |  |  |  |  |  |  |  |  |  |  |  | 101 | 115 | 117 | 130 | 109 | 91.2 | 74.5 | 70 | 75.7 | 78.7 | 81.9 | 116 | 113 | 113 | 121 | 92.6 | 78.5 | 81.7 | 67.4 | 72.5 | 68.1 | 69.5
O=C(c1ccc(F)c(F)c1Nc1ccc(I)cc1F)N1CC(O)([C@@H]2CCCCN2)C1 | 96.3 | 91.9 | 97.4 | 108 | 90.9 | 70.1 | 56.4 | 41.8 | 15.1 | 13.3 | 14.3 | 91.4 | 99.9 | 98.2 | 93.4 | 92.5 | 74.1 | 61.8 | 29.1 | 8.07 | 7.33 | 5.28 | 89.4 | 99 | 93.9 | 102 | 100 | 69.7 | 58.6 | 44.1 | 10.1 | 10.2 | 11.6
COc1cc([C@H]2Oc3cc([C@H]4Oc5cc(O)cc(O)c5C(=O)[C@@H]4O)ccc3O[C@@H]2CO)ccc1O | 103 | 122 | 119 | 126 | 120 | 123 | 125 | 95.9 | 106 | 119 | 82 | 105 | 124 | 118 | 110 | 114 | 116 | 111 | 100 | 111 | 115 | 103 | 104 | 121 | 115 | 119 | 118 | 100 | 102 | 109 | 106 | 110 | 101
O=C(Nc1ncc(SCCN2CCCC2)s1)[C@]1(c2ccc([S+](=O)([O-])C3CC3)cc2)C[C@H]1C1CCCCC1 | 111 | 136 | 110 | 123 | 120 | 106 | 105 | 102 | 103 | 70.2 | 5.84 | 125 | 127 | 123 | 111 | 123 | 113 | 107 | 128 | 108 | 104 | 25.1 | 118 | 117 | 118 | 126 | 124 | 111 | 114 | 117 | 110 | 94.2 | 17.4
CC1=C(CC(=O)O)c2cc(F)ccc2/C1=C\c1ccc([S+](C)[O-])cc1 (stereo not given) | 121 | 122 | 106 | 123 | 125 | 107 | 140 | 99.6 | 103 | 101 | 113 | 125 | 118 | 105 | 132 | 115 | 110 | 112 | 113 | 114 | 110 | 112 | 128 | 119 | 119 | 123 | 139 | 139 | 119 | 109 | 104 | 107 | 99.6
COc1ccc(C2Sc3ccccc3N(CCN(C)C)C(=O)C2OC(C)=O)cc1 (stereo not given) | 118 | 114 | 124 | 114 | 112 | 114 | 113 | 120 | 119 | 110 | 89.2 | 97.3 | 108 | 105 | 96.9 | 100 | 108 | 99 | 102 | 100 | 95.4 | 94.8 | 115 | 104 | 112 | 107 | 113 | 111 | 115 | 109 | 100 | 98.7 | 85.2
N[S+](=O)([O-])c1cccc2c1C(=O)c1cccc(O)c1C2=O | 105 | 115 | 112 | 105 | 119 | 106 | 107 | 85 | 91.6 | 78.7 | 4.98 | 110 | 101 | 103 | 98.5 | 115 | 107 | 91.9 | 94.9 | 88.2 | 97.1 | 3.99 | 97.6 | 104 | 97.3 | 103 | 102 | 107 | 108 | 94.9 | 94.3 | 82.9 | 4.93
C=CC(=O)Nc1cccc(Nc2nc(NC3CCC(N(C)C)CC3)nc3c2ncn3C(C)C)c1 (stereo not given) | 96.7 | 120 | 114 | 94.7 | 111 | 109 | 125 | 73.8 | 7.49 | 5.11 | 4.77 | 127 | 111 | 115 | 100 | 103 | 104 | 99.6 | 98.2 | 11.9 | 5.39 | 3.68 | 103 | 98.2 | 103 | 103 | 106 | 105 | 105 | 72.9 | 7.93 | 5.45 | 4.26
